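These data come from cells grown in 96-well plates and exposed to compound for 48 hours at five concentrations. GI50: concentration for 50% inhibition of growth.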 The source made the active and inactive calls. No stated cut-off is given here; in the data, active = GI50 up to about 1.1 µM and inactive = higher.
Assays:
Assay in all cases: inhibition of tumour cell growth, NCI panel, 48 h
A498 = test system: A498
A549 = test system: A549
ACHN = test system: ACHN
CAKI-1 = test system: CAKI-1
DMS-114 = test system: DMS-114
HCT-116 = test system: HCT-116
HCT-15 = test system: HCT-15
HOP-62 = test system: HOP-62
HOP-92 = test system: HOP-92
HT-29 = test system: HT-29
IGROV-1 = test system: IGROV-1
KM-20L2 = test system: KM-20L2
KM12 = test system: KM12
LOX IMVI = test system: LOX IMVI
LXFL 529 = test system: LXFL 529
M14 = test system: M14
M19-MEL = test system: M19-MEL
Malme-3M = test system: Malme-3M
NCI-H460 = test system: NCI-H460
NCI-H522 = test system: NCI-H522
OVCAR-3 = test system: OVCAR-3
OVCAR-5 = test system: OVCAR-5
SF-268 = test system: SF-268
SF-539 = test system: SF-539
SK-MEL-28 = test system: SK-MEL-28
SK-MEL-2 = test system: SK-MEL-2
SK-MEL-5 = test system: SK-MEL-5
SK-OV-3 = test system: SK-OV-3
SN12C = test system: SN12C
SNB-75 = test system: SNB-75
SNB-78 = test system: SNB-78
SR = test system: SR
SW-620 = test system: SW-620
TK-10 = test system: TK-10
U-251 = test system: U-251
UACC-62 = test system: UACC-62
UO-31 = test system: UO-31
CCRF-CEM = test system: CCRF-CEM
COLO 205 = test system: COLO 205
HL-60 = test system: HL-60
K562 = test system: K562
MOLT-4 = test system: MOLT-4
NCI-H23 = test system: NCI-H23
OVCAR-4 = test system: OVCAR-4
RPMI-8226 = test system: RPMI-8226
RXF 393 = test system: RXF 393
SF-295 = test system: SF-295
SNB-19 = test system: SNB-19
UACC-257 = test system: UACC-257
786-0 = test system: 786-0
BT-549 = test system: BT-549
DU-145 = test system: DU-145
EKVX = test system: EKVX
HCC 2998 = test system: HCC 2998
Hs-578T = test system: Hs-578T
MCF7 = test system: MCF7
MDA-MB-231 = test system: MDA-MB-231
MDA-MB-435 = test system: MDA-MB-435
MDA-N = test system: MDA-N
NCI-H226 = test system: NCI-H226
NCI/ADR-RES = test system: NCI/ADR-RES
OVCAR-8 = test system: OVCAR-8
PC-3 = test system: PC-3
T47D = test system: T47D

Measured: GI50

COc1cc2c(cc1OC)C1C(=O)c3c(O)cc4c(c3OC1CO2)C=CC(C)(C)O4 (stereo unspecified)
inactive: A498 21.6 µM | A549 2.25 µM | CAKI-1 21.7 µM | HCT-116 10.9 µM | HOP-62 14.8 µM | HOP-92 18.2 µM | HT-29 27.8 µM | IGROV-1 19 µM | KM-20L2 29.5 µM | KM12 9.44 µM | LOX IMVI 5.89 µM | LXFL 529 7.03 µM | M14 23.5 µM | M19-MEL 13.8 µM | Malme-3M 20.6 µM | NCI-H460 20.8 µM | NCI-H522 1.28 µM | OVCAR-3 13.5 µM | OVCAR-5 84.1 µM | SF-268 27.6 µM | SF-539 18.2 µM | SK-MEL-28 35.6 µM | SK-MEL-2 18.8 µM | SK-MEL-5 1.17 µM | SK-OV-3 22.3 µM | SN12C 27.2 µM | SNB-75 26.7 µM | SNB-78 31.9 µM | SR > 100 µM | SW-620 23.5 µM | TK-10 32.8 µM | U-251 12.3 µM | UACC-62 12.9 µM | UO-31 3.01 µM
19.1 µM: HCT-15
active: ACHN 0.748 µM | DMS-114 0.366 µM

COC1CCC(CO)OO1 (stereo unspecified)
inactive: A498 13.1 µM | ACHN 38.2 µM | CCRF-CEM 13.9 µM | COLO 205 53.6 µM | DMS-114 15.3 µM | HCT-116 30.3 µM | HL-60 18.4 µM | HOP-62 9.64 µM | HOP-92 28.6 µM | HT-29 28.9 µM | IGROV-1 26.4 µM | K562 4.73 µM | KM-20L2 23.9 µM | KM12 30.9 µM | LXFL 529 8.71 µM | M14 47.9 µM | M19-MEL 60.4 µM | MOLT-4 33.9 µM | Malme-3M 59.7 µM | NCI-H23 18.8 µM | NCI-H460 24.7 µM | NCI-H522 12.9 µM | OVCAR-3 18 µM | OVCAR-4 45.9 µM | OVCAR-5 25.9 µM | RPMI-8226 19.1 µM | RXF 393 33.7 µM | SF-268 35.8 µM | SF-295 14.1 µM | SF-539 27.7 µM | SK-MEL-28 52 µM | SK-MEL-2 47.9 µM | SK-OV-3 > 100 µM | SNB-19 41.4 µM | SNB-75 43.9 µM | SNB-78 15.9 µM | SR 24.3 µM | U-251 4.57 µM | UACC-257 45.2 µM | UACC-62 70.3 µM | UO-31 35.1 µM

O=C1Cc2c(-c3ccccc3)cc(-c3ccc(Cl)cc3)nc2-c2ccccc2N1
6.68 µM: HCT-15
inactive: 786-0 1.73 µM | A498 1.75 µM | A549 9.35 µM | ACHN 2.4 µM | BT-549 17.1 µM | CAKI-1 3.91 µM | CCRF-CEM 5.97 µM | COLO 205 2.96 µM | DU-145 16.7 µM | EKVX 6.92 µM | HCC 2998 6.07 µM | HCT-116 1.98 µM | HL-60 14.5 µM | HOP-62 3.66 µM | HOP-92 2.3 µM | HT-29 3.66 µM | Hs-578T 2.88 µM | IGROV-1 4.62 µM | K562 19 µM | KM12 7.89 µM | LOX IMVI 6.22 µM | M14 9.95 µM | MCF7 8.89 µM | MDA-MB-231 4.13 µM | MDA-MB-435 8.99 µM | MDA-N 6.9 µM | MOLT-4 7.8 µM | Malme-3M 5.02 µM | NCI-H226 3.07 µM | NCI-H23 4.03 µM | NCI-H460 3.21 µM | NCI-H522 2.18 µM | NCI/ADR-RES 3.14 µM | OVCAR-3 8.73 µM | OVCAR-4 1.7 µM | OVCAR-5 11 µM | OVCAR-8 2.37 µM | PC-3 10.1 µM | RPMI-8226 8.47 µM | RXF 393 3.77 µM | SF-268 4.85 µM | SF-295 5.89 µM | SF-539 5.83 µM | SK-MEL-28 2.94 µM | SK-MEL-2 17.1 µM | SK-MEL-5 3.65 µM | SK-OV-3 2.39 µM | SN12C 3.33 µM | SNB-19 1.94 µM | SNB-75 2.03 µM | SR 10 µM | SW-620 6.7 µM | T47D 3.23 µM | TK-10 3.41 µM | U-251 1.72 µM | UACC-257 14.2 µM | UACC-62 5.57 µM | UO-31 2.05 µM

O=C1Sc2ccc(Br)cc2C(=O)Sc2ccccc21
active: SR 1.06 µM
inactive: 786-0 11 µM | A498 20.9 µM | A549 27.1 µM | ACHN 16.4 µM | BT-549 12.5 µM | CAKI-1 14.6 µM | CCRF-CEM 2.48 µM | COLO 205 13.2 µM | DU-145 11.8 µM | EKVX 8.02 µM | HCC 2998 14.5 µM | HCT-116 13 µM | HL-60 2.42 µM | HOP-62 12.6 µM | HOP-92 13.5 µM | HT-29 14.3 µM | Hs-578T 11.4 µM | IGROV-1 14.2 µM | K562 12.8 µM | KM12 16 µM | LOX IMVI 9.1 µM | M14 11.4 µM | MCF7 16.4 µM | MDA-MB-231 16.5 µM | MDA-MB-435 7.91 µM | MDA-N 8.17 µM | MOLT-4 4.34 µM | Malme-3M 2.24 µM | NCI-H226 18.5 µM | NCI-H23 15.7 µM | NCI-H460 15.8 µM | NCI-H522 4.84 µM | NCI/ADR-RES 16 µM | OVCAR-3 12.5 µM | OVCAR-4 13.2 µM | OVCAR-5 17.9 µM | OVCAR-8 9.84 µM | PC-3 13 µM | RPMI-8226 3.33 µM | RXF 393 4.56 µM | SF-268 7.08 µM | SF-295 22.4 µM | SF-539 11.6 µM | SK-MEL-28 19.5 µM | SK-MEL-2 18.8 µM | SK-MEL-5 14.4 µM | SK-OV-3 27.4 µM | SN12C 14.5 µM | SNB-19 13.9 µM | SNB-75 12.5 µM | SW-620 17.9 µM | T47D 9.29 µM | TK-10 17.9 µM | U-251 14.5 µM | UACC-257 13.8 µM | UACC-62 16.8 µM | UO-31 12.9 µM
15.7 µM: HCT-15

From ChEMBL document CHEMBL1201862, “PubChem BioAssay data set” (2004)
